Data reported in patent publication US20220160652A1, “USE OF VITAMIN K IN COMBINATION WITH ANTICOAGULANTS” (KAYDENCE PHARMA AS, priority 2019, published 2022).

What was measured:
[1] = test system: VSMCs; test: Oxidative stress in VSMCs (DCFDA fluorescence); type: cell-based; conditions: 10 μM, fluorescence measured for 6 hours
Protocol: It is known that the level of reactive oxygen species in cells can be measured by measuring the conversion of 2′,7′—dichlorofluorescein diacetate (DCFDA) to the fluorescent dye 2′,7′-dichlorofluorescein (DCF). The fluorescence generated by cells subjected to DCFDA is directly proportional to the amount of oxidized DCFDA to DCF.
To perform the study, VSMCs (10,000 cells/well) were plated in a 96-well plate and left to adhere overnight. Next, cells were incubated for 1 hour with 20 μM DCFDA. The medium was then changed to medium supplemented with 10 μM vitamin K2 (MK-7). To visualize intracellular oxidative stress, fluorescence was measured for 6 hours and fluorescence intensity was normalized for cell count.

[2] = test system: VSMCs; test: Hypoxia (CoCl2) induced oxidative stress in VSMCs (DCFDA); type: cell-based; conditions: 10 μM, after 50 μM CoCl2 for 19 hours
Protocol: This study was performed to determine whether intracellular oxidative stress in VSCMs is derived from mitochondrial dysfunction. To perform this study, VSMCs were incubated with cobalt chloride, a known stabilizer of HIF1a. Cobalt chloride binding to HIF1a prevents the degradation of HIF1a and thus results in a cellular hypoxia state. HIF1a has been implicated in cancer biology as well as a number of other pathophysiologies, specifically in areas of vascularization and angiogenesis, energy metabolism, cell survival, and tumor invasion. Under normal circumstances, after injury, HIF1a is degraded by the enzyme prolyl hydroxylase (PHD). The continued up-regulation of HIF1 a (mimicked by cobalt chloride) promotes tumor growth and metastasis through its role in initiating angiogenesis and regulating cellular metabolism to overcome hypoxia. Hypoxia promotes apoptosis in both normal and tumor cells. Additionally, hypoxia generates significant intracellular oxidative stress.
To perform the study, VSMCs (10,000 cells/well) were plated in a 96-well plate and left to adhere overnight. Next, the medium was changed to a medium supplemented with 50 μM CoCl2 for 19 hours. The next day, cells were washed and incubated for 1 hour with 20 μM DCFDA in the presence of a vehicle (solvent for CoCl2 and vitamin K2 (MK-7)/UQ10), 10 μM vitamin K2 (MK-7), or 10 μM UQ10 in medium. The medium was then changed to a medium supplemented with vehicle, vitamin K2 (MK-7)/UQ10, or CoCl2, and fluorescent was measured for 6 hours. Fluorescence intensity was normalized for cell count.

[3] = test system: VSMCs; test: ATP increase, 24 h incubation (luminescence); type: cell-based; conditions: 10 μM, p=0.014 for MK-7
Protocol: This study was performed to determine if vitamin K2 (MK-7) affects ATP generation. ATP is generated via glycolysis in the cytoplasm and via both the Krebs-cycle and oxidative phosphorylation in the mitochondria. ATP generation via glycolysis delivers only 2 ATP, whereas ATP generation in the mitochondria generates some 32 ATP.
(§1) To perform this study, VSCMs (5000 cells/well) were plated in 96-well plates and left to adhere overnight. Next, cells were incubated for 24 hours with either vehicle, vitamin K2 (MK-7) (10 μM), or UQ10 (10 μM). Hoechst was added to correct for cell number (1 μg/mL). Next, ATP was measured using mammalian lysis buffer for 5 minutes after which 50 μL ATP substrate solution was added to the wells and incubated for 10 minutes in a dark environment. Finally, the medium was transferred to a white plate to measure luminescence

[4] = test system: VSMCs; test: ATP increase, 48 h incubation with CoCl2 comparison (luminescence); type: cell-based; conditions: 10 μM, vs CoCl2 100 μM
Protocol: as §1, with “This study was performed to further investigate the origin of ATP production that is influenced by vitamin K2 (MK-7). To” for “To”, “for 48” for “for 24”, “vehicle, CoCl2 (100 μM),” for “vehicle,”, “5 minutes,” for “5 minutes”, “Finally,” for “Finally, the”, “measure luminescence.” for “measure luminescence”

[5] = test system: Sprague-Dawley rats; test: Thrombin Time (TT) in treated Sprague-Dawley rats; type: in vivo, rat; conditions: added to dabigatran and to rivaroxaban
Protocol: To perform the study, 45 wild-type male Sprague-Dawley and 45 transgenic male Ren-2 rats [TGR(mREN-2)27] at the age of 10-11 weeks at the beginning of the treatment period were purchased from animal facility IKEM-CEM Institute of Clinical and Experimental Medicine (Prague, Czech Republic). All animals in the experiment were housed in individually ventilated cages (2-3 rats per cage) and kept in the animal rooms of JCET at a relative humidity of 55±10%, a temperature of 22±2 ° C., and a light cycle of 7 AM to 7 PM. The rats had free access to food and water. After delivery, animals were randomly divided into 10 experimental groups (5 or 10 rats per group), as indicated below in Table 1.
Four days before the start of the treatment, the first part of animals' body weight and food intake was measured in selected representative three cages (rats n=9) to calculate the appropriate amount of tested compounds required for addition to the diet to obtain the dosing indicated in Table 1. It was estimated that food intake was approximately 30 g of chow per rat per day. […] The body mass of the rats was measured at the beginning and at the end of treatment.
Prothrombin Time (PT), activated Partial Thromboplastin Time (aPTT), Thrombin Time (TT) and fibrinogen levels (Clauss method) were determined according to the manufacturer's instructions using Coag-Chrom 3003 apparatus (Bio-ksel, Grudziadz, Poland). […]

CC(C)=CCC/C(C)=C/CC/C(C)=C/CC/C(C)=C/CC/C(C)=C/CC/C(C)=C/CC/C(C)=C/CC1=C(C)C(=O)c2ccccc2C1=O [vitamin K2 (MK-7)]
oxidative stress in VSMCs (DCF fluorescence) [1]: clearly reduced the oxidative stress | hypoxia induced oxidative stress (counteraction) [2]: seems to counteract hypoxia induced oxidative stress | ATP production in VSMCs compared to the vehicle [3]: increased ATP production in VSMCs significantly | ATP levels compared to CoCl2 [4]: significant higher ATP levels | increase of thrombin time on addition of vitamin K2 (MK-7) [5]: 5-7%
